“Also recorded” adds a separate entry of the source. No end group written: not given here.

For data set [1], the system named is Latilactobacillus sakei ATCC 15521. Nature of the data set: Broth microdilution antimicrobial assay. Type of data set: cell-based. The conditions noted are these: microbroth dilution in mGAM, anaerobic, 37 °C, 24 h, OD600, CPP 0.01-100 µM. As for the experimental part:
(§1) Gut commensal microbial strains used in this study (Table 2) were purchased from […] (ATCC) and DSMZ, Germany. The growth and screening experiments were performed in modified Gifu Anaerobic Medium (mGAM) (HyServe GmbH and Co.) as all the strains could grow well in this media. mGAM was pre-reduced for a minimum of 1 day in the anaerobic chamber (Coy laboratory products Inc.) before use.
(§2) The antimicrobial effects of CPPs were determined by performing microbroth dilution method. The overnight cultures of the strains were diluted 100-fold in mGAM broth and 100 µL of the diluted cultured were distributed in the 96-well microplate. Next, 100 µL of CPPs in their respective concentrations were added to respective wells. Plates were incubated aerobically (Escherichia coli Nissle, Escherichia coli K12, and Saccharomyces boulardii) or anaerobically (rest of the strains) at 37 °C for 24 h with or without shaking, respectively. Reading of each plate was performed by measuring the optical density (OD) at 600 nm in a microplate reader (Synergy™ H1 BioTek). The final absorbance values were normalized and represented as values between 0 and 1 as a heat map, where 0 being full inhibition and 1 being no inhibition. The MIC was determined as the minimum concentration of the CPPs at which no significant growth of the strain was observed as compared to medium only (blank).
Background: Broth dilution looks for growth in wells or tubes with falling amounts of substance.

For data set [2], the system named is Clostridium bolteae DSM 29485. Nature of the data set: Broth microdilution antimicrobial assay. In kind it is cell-based. The conditions noted are these: microbroth dilution in mGAM, anaerobic, 37 °C, 24 h, OD600, CPP 0.01-100 µM. The procedure: as §1, §2
The test system of data set [3] is Bifidobacterium longum ATCC 15697. In words: Broth microdilution antimicrobial assay. In kind it is cell-based. The conditions noted are these: microbroth dilution in mGAM, anaerobic, 37 °C, 24 h, OD600, CPP 0.01-100 µM. The procedure:
as §1, §2

For data set [4], the system named is Caco-2 monolayers. In words: FITC-dextran translocation assay. Type of data set: cell-based, human. The conditions noted are these: for Paracellular permeability of FITC-dextran (Papp A-B): Caco-2 monolayers 21 days, each CPP at a concentration without cytotoxicity, apical, 1 h, 37 °C, pH 7.4, then 1 mg/ml FITC-dextran 4 for 30 min, fluorescence, n = 3; for Paracellular permeability (TEER and FITC-dextran assays collectively) / FITC-dextran translocation: Caco-2 monolayers; for Paracellular permeability (TEER and FITC-dextran assays collectively): in the concentrations tested; for FITC-dextran translocation: CPP 100 µM. As for the experimental part: (§3) For Fluorescein Isothiocyanate (FITC)-Dextran permeability experiments, Caco-2 monolayers differentiated for 21 days were transferred to 12-well plates containing 1.5 ml phenol red free DMEM media (pH 7.4) in the basal compartments. For the treatment, medium in the apical compartment was replaced by 0.5 ml phenol red free DMEM medium containing different concentrations of CPPs, and the plates were incubated at 37 °C for 1 h. Post treatment, inserts were transferred to a new 12-well plate containing 1.5 ml fresh phenol red free DMEM and the apical medium was replaced by medium containing 1 mg/ml FITC-dextran 4 (Sigma-Aldrich). The incubation with the permeability marker lasted for 30 min. Samples were collected from the basolateral compartments post incubation and fluorescence was measured using multi-well fluorescent plate reader (Synergy; excitation wavelength: 490 nm, emission wavelength: 520 nm). The concentration of FITC-dextran in the samples was calculated by comparing the relative fluorescence values to the FITC-dextran standard curve. The apparent permeability coefficient (Papp, cm/s) was calculated according to Eq. 1. Papp=dQ/dt×1/(A×C0), (1) Where dQ/dt is the drug permeation rate (μg/s); a is the surface area of the inserts (cell monolayer) (cm^2); and C0 is the initial concentration at the apical side (μg/ml).
In general terms: Passage across Caco-2 layers is used to estimate intestinal permeability.

In data set [5] the test system is Caco-2 cells. Nature of the data set: AlamarBlue cell viability assay. Type of data set: cell-based, human. The conditions noted are these: for Cell toxicity and viability: CPP 50 µM, Cytotox Red and AlamarBlue assays. The procedure: Caco-2 cells were seeded (6 × 10^3 cells/well) in Corning™ Costar™ 96-Well, Cell Culture-Treated, Flat-Bottom Microplate and grown at 37°C with 5% CO2 until reaching confluence. For alamarBlue cell viability staining, cells were exposed to treatments (DMEM + AlamarBlue (10 µL) + CPPs) at different concentrations and incubated for 2 h at 37°C with 5% CO2. Fluorescence was measured with microplate reader Synergy™ H1 BioTek; (excitation wavelength: 560 nm, emission wavelength: 590 nm) and a curve of Relative Fluorescence Units (RFU) against different concentrations of CPPs was plotted.
(Alamar Blue is a resazurin reagent that responds to reducing activity.)

Data set [6] relates to Caco-2 cells. Type of data set: cell-based. The conditions noted are these: CPP 1, 5, 10, 50, 100 µM in DMEM, 1 h treatment (legend; method says 2 h), 37°C, Incucyte imaging, n = 2. The procedure:
Caco-2 cells were seeded (6 × 10^3 cells/well) in Corning™ Costar™ 96-Well, Cell Culture-Treated, Flat-Bottom Microplate and grown at 37°C with 5% CO2 until reaching confluence. […] Fluorescence was measured with microplate reader Synergy™ H1 BioTek; (excitation wavelength: 560 nm, emission wavelength: 590 nm) and a curve of Relative Fluorescence Units (RFU) against different concentrations of CPPs was plotted.
[…] The cells were then imaged using the Incucyte® Live-Cell analysis instrument. Cytotox Red dye dilution: The dye was diluted to a stock concentration of 100 µM in PBS. This was further diluted in full media to yield a final concentration of 250 nM before adding to the cells.

For data set [7], the system named is Caco-2 monolayers. In words: Transepithelial electrical resistance (TEER) of Caco-2 monolayers. Type of data set: cell-based, human. The conditions noted are these: for Change in TEER values after 1 h treatment with CPPs: Caco-2 monolayers differentiated 21 days, each CPP at a concentration without cytotoxicity, 37 °C, n = 3, p < 0.01 vs no treatment; for Reduction in TEER: Caco-2 monolayers, CPP 100 µM. As for the experimental part: Transepithelial electrical resistance (TEER) represents the barrier integrity and permeability of the Caco-2 monolayers. To measure TEER, cells were seeded and grown on 12-well cell culture inserts ([…], 1.1 cm, polyethylene terephthalate membrane, cellQART) for a period of 21 days. TEER was measured using Millicell® ERS-2 Voltohmeter (MERS00002), combined with a STX-04 electrode. Final TEER values were expressed relative to the surface area of the inserts (ΩTotal - ΩInsert X cm^2). TEER values were monitored every day from day 14 until day 21, before, and after permeability experiments. On day 21 of differentiation, TEER values of the monolayers were 600 ± 50 Ω X cm^2 (mean ± SD; n = 48).
as §3

The next data set has as its system Saccharomyces cerevisiae. Details: method as in Palm et al in 2006. The conditions noted are these: ref Palm et al in 2006; cited from earlier work.
Data set [8] deals with Caco-2 monolayers. The conditions noted are these: cited from earlier work. As for the experimental part: (§4) In the present work we systematically screened for effective CPPs that promote intestinal permeation through paracellular route and have negligible or no harmful effects against human epithelial cells and gut microbial strains. […] The results from the cytotoxicity and cell viability assays were in concordance except for RRL helix and PN159 at 5 µM. This minor difference most likely has to do with the sensitivity of the assay. The reducing capacity of the cells (as measured by AlamarBlue) is not the same as membrane integrity (as measured by Cytotoxic Red).

Data set [9] has as its system Escherichia coli Nissle 1917 (Mutaflor). Nature of the data set: Broth microdilution antimicrobial assay. The conditions noted are these: microbroth dilution in mGAM, aerobic with shaking, 37 °C, 24 h, OD600, CPP 0.01-100 µM. In kind it is cell-based. The procedure:
as §1, §2

Data set [10] relates to Bifidobacterium adolescentis DSM 20083. In words: Broth microdilution antimicrobial assay. Type of data set: cell-based. The conditions noted are these: microbroth dilution in mGAM, anaerobic, 37 °C, 24 h, OD600, CPP 0.01-100 µM. As for the experimental part:
as §1, §2

In data set [11] the test system is 10 commensal gut microbial strains. Nature of the data set: Broth microdilution antimicrobial assay, panel summary. In kind it is cell-based. The conditions noted are these: range over the strains that were totally inhibited; mGAM, 37 °C, 24 h. As for the experimental part:
as §1, §2

For data set [12] the following is noted: rats, without damaging the epithelial barrier integrity, ref Kamei et al., 2008, Morishita et al., Bocsik et al., 2019; cited from earlier work. As for the experimental part: as §4

For the sequence KWFKIQMQIRRWKNKR [Penetramax], the “Minimum inhibitory concentration (MIC)” value in data set [1] is given as 100 µM; in data set [2] it was 100 µM; in [3], 10 µM. In the data set on Caco-2 monolayers [4], the “Paracellular permeability of FITC-dextran (Papp A-B)” value is on record as “highest paracellular permeability”. In addition, the “Cell toxicity and viability” value in the data set on Caco-2 cells [5] is “without having significant effects on cell toxicity and viability”. Besides, the “Cytotoxicity (Cytotox Red dye staining, dead cells)” value (“Cytotoxicity” below) in the data set on Caco-2 cells [6] was “significant toxicity only at the highest concentration tested (100 µM)”.
As to “LLIILRRRIRKQAHAHSK [pVEC, Protein derived cell-penetrating peptide]”, the “Change in TEER values after 1 h treatment with CPPs” value in the data set on Caco-2 monolayers [7] was “significant reduction in TEER values”. Moreover, the “Paracellular permeability (TEER and FITC-dextran assays collectively)” value in the data set on Caco-2 monolayers [4] was “did not exhibit paracellular permeability”. Besides, the “Concentration without inhibition of growth” value in the data set on Saccharomyces cerevisiae is more than 25 µM.
Consider “RQIKIWFQNRRMKWKK [Penetratin, Protein derived cell-penetrating peptide]”, for which the “Change in TEER values after 1 h treatment with CPPs” value in the data set on Caco-2 monolayers [7] was “significant reduction in TEER values”. In addition, in the data set with Caco-2 monolayers [4], the “Permeabilizing effect in the Caco-2 monolayer setup” value is “no permeabilizing effect”; the “Paracellular permeability (TEER and FITC-dextran assays collectively)” value is recorded as “did not exhibit paracellular permeability”. Besides, the “Concentration without inhibition of growth” value in the data set on Saccharomyces cerevisiae is more than 25 µM. Also, in the data set on Caco-2 monolayers [8], the “Paracellular permeability of Caco-2 monolayers” value was “did not improve paracellular permeability”.
Take RRLRRLLRRLRRLLRRLR [RRL helix]: the “Minimum inhibitory concentration (MIC)” value is reported as 50 µM in data set [1]; 10 µM in [2]; 50 µM in [9]; 100 µM in [10]; 5 µM in [3]. The “Paracellular permeability of FITC-dextran (Papp A-B)” value in the data set on Caco-2 monolayers [4] is “highest paracellular permeability”. In addition, the “Cell viability (AlamarBlue, % live cells vs control)” value in the data set with Caco-2 cells [5] (CPP 5 µM, 1 h treatment (legend; method says 2 h), 37°C, fluorescence 560/590 nm, n = 3) was “no significant toxic effect”. In addition, the “Cytotoxicity” value in the data set with Caco-2 cells [6] is “toxic at 5 µM; also recorded: Toxicity from 5 μM”. In addition, the “MICs over the totally inhibited strains of the panel” value in data set [11] was in the range of 5 to 100 µM.
For the sequence “RRRRRRRR [R8, Synthetic oligoarginine cell-penetrating peptide]”, in the data set on Caco-2 monolayers [7], the “Reduction in TEER” value is “did not observe reduction in TEER”. Further, in the data set on Caco-2 monolayers [4], the FITC-dextran translocation result is recorded as “did not observe reduction in TEER or elevated FITC-dextran translocation”; the “Paracellular permeability (TEER and FITC-dextran assays collectively)” value was “did not exhibit paracellular permeability”. In data set [12], the “Intestinal absorption of therapeutic peptides” value was “effective tools at improving intestinal absorption of therapeutic peptides”.
Regarding “RRRRRRRRR [R9, Synthetic oligoarginine cell-penetrating peptide]”, in the data set on Caco-2 monolayers [7], the “Reduction in TEER” value is reported as “did not observe reduction in TEER”. In addition, in the data set with Caco-2 monolayers [4], the FITC-dextran translocation result was “did not observe reduction in TEER or elevated FITC-dextran translocation”; the “Paracellular permeability (TEER and FITC-dextran assays collectively)” value is given as “did not exhibit paracellular permeability”. Also, the “Intestinal absorption of therapeutic peptides” value in data set [12] was “effective tools at improving intestinal absorption of therapeutic peptides”.
Regarding RWFKIQMQIRRWKNKK [Shuffle], the results for the “Minimum inhibitory concentration (MIC)” value in data set [1], in data set [2] and in [3] were 100 µM, 50 µM and 10 µM, respectively. For the same sequence, in the data set on Caco-2 monolayers [4], the “Paracellular permeability of FITC-dextran (Papp A-B)” value is on record as “highest paracellular permeability”. In the data set with Caco-2 cells [5], the “Cell toxicity and viability” value was “without having significant effects on cell toxicity and viability”. The “Cytotoxicity” value in the data set with Caco-2 cells [6] is reported as “significant toxicity only at the highest concentration tested (100 µM)”.
For YGRKKRRQRRR [Tat], in the data set on Caco-2 monolayers [4], the “Permeabilizing effect in the Caco-2 monolayer setup” value is “no permeabilizing effect”; the “Paracellular permeability (TEER and FITC-dextran assays collectively)” value is recorded as “did not exhibit paracellular permeability”.

Values taken from paper PMC9666501, “Screening for effective cell-penetrating peptides with minimal impact on epithelial cells and gut commensals in vitro” (Frontiers in Pharmacology, 2022).
